Key:
Type in all cases: in vivo
[1] = test system: canarygrass (Phalaris minor); assay: Test B postemergence plant response
Outline: (§1)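 Visual ratings from 0 (no effect) to 100 (complete control), made against controls 13–15 days after treatment, kept in a greenhouse. Compounds were applied postemergence to potted plants at the 1- to 4-leaf stage (2–18 cm).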

[2] = test system: windgrass (Apera spica-venti); assay: Test B postemergence plant response
Outline: as §1

[3] = test system: winter barley (Hordeum vulgare); assay: Test B postemergence plant response
Outline: as §1

[4] = test system: chickweed (Stellaria media); assay: Test B postemergence plant response
Outline: as §1

corn (Zea mays) = assay: Test B pre-/postemergence plant response
Excerpt: (§2) Seeds of plant species selected from blackgrass (Alopecurus myosuroides), downy bromegrass (Bromus tectorum), green foxtail (Setaria viridis), Italian ryegrass (Lolium multiflorum), wheat (Triticum aestivum), wild oat (Avena fatua), deadnettle (henbit deadnettle, Lamium amplexicaule), galium (catchweed bedstraw, Galium aparine), bermudagrass (Cynodon dactylon), Surinam grass (Brachiaria decumbens), cocklebur (Xanthium strumarium), corn (Zea mays), large crabgrass (Digitaria sanguinalis), woolly cupgrass (Eriochloa villosa), giant foxtail (Setaria faberii), goosegrass (Eleusine indica), johnsongrass (Sorghum halepense), kochia (Kochia scoparia), lambsquarters (Chenopodium album), morningglory (Ipomoea coccinea), nightshade (eastern black nightshade, Solanum ptycanthum), yellow nutsedge (Cyperus esculentus), pigweed (Amaranthus retroflexus), ragweed (common ragweed, Ambrosia elatior), Russian thistle (Salsola kali), soybean (Glycine max), sunflower (common oilseed sunflower, Helianthus annuus) and velvetleaf (Abutilon theophrasti) were planted into a blend of loam soil and sand and treated preemergence with test compounds formulated in a non-phytotoxic solvent mixture which included a surfactant.
(§3) At the same time, plants selected from these crop and weed species and also winter barley (Hordeum vulgare), canarygrass (Phalaris minor), chickweed (Stellaria media) and windgrass (Apera spica-venti) were planted in pots containing Redi-Earth® planting medium (Scotts Company, 14111 Scottslawn Road, Marysville, Ohio 43041) comprising spaghnum peat moss, vermiculite, wetting agent and starter nutrients and treated with postemergence applications of some of the test chemicals formulated in the same manner. Plants ranged in height from 2 to 18 cm (1- to 4-leaf stage) for postemergence treatments.
(§4) Treated plants and controls were maintained in a greenhouse for 13 to 15 days, after which time all treated plants were visually evaluated and compared to controls. Plant response ratings, summarized in Table B, are based on a scale of 0 to 100 where 0 is no effect and 100 is complete control. A dash (-) response means no test result.

[5] = test system: goosegrass (Eleusine indica); assay: Test B pre-/postemergence plant response
Excerpt: as §2, §3, §4

soybean (Glycine max) = assay: Test B pre-/postemergence plant response
Excerpt: as §2, §3, §4

[6] = test system: green foxtail (Setaria viridis); assay: Test B pre-/postemergence plant response
Excerpt: as §2, §3, §4

[7] = test system: lambsquarters (Chenopodium album); assay: Test B pre-/postemergence plant response
Excerpt: as §2, §3, §4

[8] = test system: velvetleaf (Abutilon theophrasti); assay: Test B pre-/postemergence plant response
Excerpt: as §2, §3, §4

[9] = test system: pigweed (Amaranthus retroflexus); assay: Test B pre-/postemergence plant response
Excerpt: as §2, §3, §4

[10] = test system: johnsongrass (Sorghum halepense); assay: Test B pre-/postemergence plant response
Excerpt: as §2, §3, §4

[11] = test system: yellow nutsedge (Cyperus esculentus); assay: Test B pre-/postemergence plant response
Excerpt: as §2, §3, §4

[12] = test system: giant foxtail (Setaria faberii); assay: Test B pre-/postemergence plant response
Excerpt: as §2, §3, §4

[13] = 31 g ai/ha, postemergence, scale 0 to 100, 0 is no effect, 100 is complete control
[14] = 62 g ai/ha, postemergence, 0 is no effect, 100 is complete control, 13 to 15 days
[15] = Postemergence, 125 g ai/ha, visual rating after 13 to 15 days, scale 0 (no effect) to 100 (complete control)
[16] = Postemergence, 250 g ai/ha, scale 0 to 100 (0 no effect, 100 complete control)
[17] = 250 g ai/ha, Preemergence, 0 to 100 scale
[18] = Preemergence, 31 g ai/ha, scale 0 to 100 (0 no effect, 100 complete control)
[19] = Preemergence, 62 g ai/ha, scale 0 to 100 (0 no effect, 100 complete control)
[20] = Preemergence, 125 g ai/ha, scale 0 to 100, 0 no effect, 100 complete control

## CCCc1ncc(C(=O)C2=C(O)CCCC2=O)c(=O)n1-c1ccccc1C [Compound 73]
[1]; [13]
  Plant response rating, Canarygrass: 0
[1]; [14]
  Canarygrass plant response rating (0 to 100 scale): 0
[1]; [15]
  Plant response rating, Canarygrass: 5
[1]; [16]
  Plant response rating, Canarygrass: 40
[2]; [13]
  Plant response rating, Windgrass: 70
[2]; [14]
  Windgrass plant response rating (0 to 100 scale): 80
[2]; [15]
  Plant response rating, Windgrass: 90
[2]; [16]
  Plant response rating, Windgrass: 98
[3]; [13]
  Plant response rating, Barley: 0
[3]; [14]
  Barley plant response rating (0 to 100 scale): 0
[3]; [15]
  Plant response rating, Barley: 0
[3]; [16]
  Plant response rating, Barley: 10
[4]; [13]
  Plant response rating, Chickweed: 80
[4]; [14]
  Chickweed plant response rating (0 to 100 scale): 80
[4]; [15]
  Plant response rating, Chickweed: 95
[4]; [16]
  Plant response rating, Chickweed: 100
Corn (Zea mays); [13]
  Plant response rating, Corn: 20
Corn (Zea mays); [14]
  Corn plant response rating (0 to 100 scale): 80
Corn (Zea mays); [17]
  Plant response rating, Corn: 10
Corn (Zea mays); [15]
  Plant response rating, Corn: 80
Corn (Zea mays); [16]
  Plant response rating, Corn: 85
Corn (Zea mays); [18]
  Plant response rating, Corn: 0
Corn (Zea mays); [19]
  Plant response rating, Corn: 0
Corn (Zea mays); [20]
  Plant response rating, Corn: 0
[5]; [13]
  Plant response rating, Goosegrass: 65
[5]; [14]
  Goosegrass plant response rating (0 to 100 scale): 75
[5]; [17]
  Plant response rating, Goosegrass: 100
[5]; [15]
  Plant response rating, Goosegrass: 75
[5]; [16]
  Plant response rating, Goosegrass: 80
[5]; [18]
  Plant response rating, Goosegrass: 85
[5]; [19]
  Plant response rating, Goosegrass: 98
[5]; [20]
  Plant response rating, Goosegrass: 100
Soybean (Glycine max); [13]
  Plant response rating, Soybean: 80
Soybean (Glycine max); [14]
  Soybean plant response rating (0 to 100 scale): 85
Soybean (Glycine max); [15]
  Plant response rating, Soybean: 90
Soybean (Glycine max); [16]
  Plant response rating, Soybean: 95
[6]; [13]
  Plant response rating, Foxtail, Green: 70
[6]; [14]
  Foxtail, Green plant response rating (0 to 100 scale): 90
[6]; [17]
  Plant response rating, Foxtail, Green: 80
[6]; [15]
  Plant response rating, Foxtail, Green: 90
[6]; [16]
  Plant response rating, Foxtail, Green: 95
[6]; [18]
  Plant response rating, Foxtail, Green: 0
[6]; [19]
  Plant response rating, Foxtail, Green: 30
[6]; [20]
  Plant response rating, Foxtail, Green: 30
[7]; [13]
  Plant response rating, Lambsquarters: 85
[7]; [14]
  Lambsquarters plant response rating (0 to 100 scale): 98
[7]; [17]
  Plant response rating, Lambsquarters: 100
[7]; [15]
  Plant response rating, Lambsquarters: 100
[7]; [16]
  Plant response rating, Lambsquarters: 100
[7]; [18]
  Plant response rating, Lambsquarters: 95
[7]; [19]
  Plant response rating, Lambsquarters: 98
[7]; [20]
  Plant response rating, Lambsquarters: 100
[8]; [13]
  Plant response rating, Velvetleaf: 95
[8]; [14]
  Velvetleaf plant response rating (0 to 100 scale): 100
[8]; [15]
  Plant response rating, Velvetleaf: 100
[8]; [16]
  Plant response rating, Velvetleaf: 100
[8]; [18]
  Plant response rating, Velvetleaf: 100
[8]; [19]
  Plant response rating, Velvetleaf: 100
[8]; [20]
  Plant response rating, Velvetleaf: 100
[9]; [13]
  Plant response rating, Pigweed: 80
[9]; [14]
  Pigweed plant response rating (0 to 100 scale): 98
[9]; [15]
  Plant response rating, Pigweed: 100
[9]; [16]
  Plant response rating, Pigweed: 100
[9]; [18]
  Plant response rating, Pigweed: 95
[9]; [19]
  Plant response rating, Pigweed: 100
[9]; [20]
  Plant response rating, Pigweed: 100
[10]; [13]
  Plant response rating, Johnsongrass: 10
[10]; [14]
  Johnsongrass plant response rating (0 to 100 scale): 65
[10]; [17]
  Plant response rating, Johnsongrass: 98
[10]; [15]
  Plant response rating, Johnsongrass: 70
[10]; [16]
  Plant response rating, Johnsongrass: 75
[10]; [18]
  Plant response rating, Johnsongrass: 0
[10]; [19]
  Plant response rating, Johnsongrass: 0
[10]; [20]
  Plant response rating, Johnsongrass: 98
[11]; [13]
  Plant response rating, Nutsedge, Yellow: 20
[11]; [14]
  Nutsedge, Yellow plant response rating (0 to 100 scale): 20
[11]; [15]
  Plant response rating, Nutsedge, Yellow: 50
[11]; [16]
  Plant response rating, Nutsedge, Yellow: 70
[11]; [18]
  Plant response rating, Nutsedge, Yellow: 20
[11]; [19]
  Plant response rating, Nutsedge, Yellow: 65
[11]; [20]
  Plant response rating, Nutsedge, Yellow: 65
[12]; [13]
  Plant response rating, Foxtail, Giant: 70
[12]; [14]
  Foxtail, Giant plant response rating (0 to 100 scale): 75
[12]; [17]
  Plant response rating, Foxtail, Giant: 80
[12]; [15]
  Plant response rating, Foxtail, Giant: 80
[12]; [16]
  Plant response rating, Foxtail, Giant: 90
[12]; [18]
  Plant response rating, Foxtail, Giant: 0
[12]; [19]
  Plant response rating, Foxtail, Giant: 70
[12]; [20]
  Plant response rating, Foxtail, Giant: 75

Reference: patent US8952024B2, “Herbicidal pyrimidone derivatives” (E I du Pont de Nemours and Company, priority 2009, dated 2015)
